According to patent publication US7763426B2, “Probes and methods for detection of Escheridia coli and antibiotic resistance” (priority 2004, dated 2010):
{Fluorescein} = fluorescein label (binding site for anti-fluorescein Fab-HRP); {Biotin} = biotin (capture probe anchor)

Experiments:
[1] = Double-labeled Test Probes on the electrochemical sensor (no hybridization)
Description: FIG. 7. The effect of oligonucleotide length on electrochemical signal intensity. Single stranded oligonucleotides (‘Test Probes’) ranging from 20-60 bps in length modified at the 5′- and 3′-ends with biotin and fluorescein, respectively, were tested to examine the effect of probe length on signal intensity. Hybridization was not required in these experiments because, as shown in the inset, the double-labeled probes served as a bridge between fluorescein and biotin on the electrochemical sensor surface. The highest signal output was obtained using the 40 bp probe, yielding a lower limit of detection at a concentration of 10 pM. Background current output was measured using negative control (NC) sensors to which no cell lysates were applied.
Sensor characterization and surface functional layer preparation. Microfabricated electrochemical sensor arrays with an alkanethiolate self-assembled monolayer (SAM) were obtained from GeneFluidics (Monterey Park, Calif.). […]
Amperometric Detection of bacterial 16S rRNA. […] Amperometric current vs. time was measured using a multichannel potentiostat (GeneFluidics). The voltage was fixed at −200 mV (vs. reference), and the electroreduction current was measured at 60 sec after the HRP redox reaction reached steady state. All samples were analyzed in duplicate. […] Positive signals are determined by comparing the signals with the background using paired T test. […]

[2] = tested on: E. coli 16S rRNA; experiment: Amperometric detection of bacterial 16S rRNA, 65° C. hybridization (Examples 2, 3); type: binding, Escherichia coli; conditions: for sensitivity of electrochemical sensor assay (cells detected): five-fold serial dilutions of E. coli cells, capture probe EC434C, 5′-fluorescein 6 nt gap vs 3′-fluorescein 0 nt gap

## CGTCAATGAGCAAAGGTATTACTCCCTTCCTCCCCGCTGA (DNA CGTCAATGAGCAAAGGTATTACTCCCTTCCTCCCCGCTGA; DNA, 5' {Biotin}, 3' {Fluorescein}, backbone and methylation of C not given here) [40-mer]
[1]; 5′-biotin, 3′-fluorescein Test Probe
  lower limit of detection: 10 pM
[1]; across a range of concentrations
  signal relative to 20mer and 60mer Test Probes: higher signals

## TCCCCGCTGAAAGTACTTTACAACCCGAAGGCCTT (DNA TCCCCGCTGAAAGTACTTTACAACCCGAAGGCCTT; sugars by position and backbone not given here; further chemistry not fully specified; listed as Escherichia coli) [EC399D]
[2]; 3′-fluorescein and continuity of hybridization sites vs 5′-fluorescein with gap
  improvement in sensitivity: 24-25 fold
[2]
  sensitivity of electrochemical sensor assay (cells detected): 260 cells

## CTGAAAGTACTTTACAACCCGAAGGCCTTCTTCAT (DNA CTGAAAGTACTTTACAACCCGAAGGCCTTCTTCAT; DNA, backbone and methylation of C not given here; listed as Escherichia coli) [EC393D]
[2]
  sensitivity of electrochemical sensor assay (cells detected): 6,200 cells
